Values joined by “and” are separate entries in the source; they are usually repeats but may differ in a detail not shown here. Equal entries are not always repeated.
Columns and labels:
C57BL/6 mice = test: Indirect calorimetry and exercise endurance under stepwise treadmill running; type: in vivo, mouse; conditions: 30 mg/kg; for CO2 Production (VCO2) / O2 Consumption (VO2) / Respiratory quotient: DS20060511 30 mg/kg, individual mice 1-7, Fig. 5a
Experimental: The mice were acclimatized to the treadmill by allowing them to run at 10 m min^−1 for 10 min on the day before the test. On the day of the test, the mice received oral administration of 30 mg kg^−1 of DS20060511 or vehicle 15 min before they were made to run. The treadmill was started at a velocity of 10 m min^−1, with the speed increased stepwise by 2 m min^−1 every 3 min, to assess the exercise endurance capacity as described previously. Measurements of the oxygen consumption (VO2) and exhaled carbon dioxide (VCO2) under treadmill running were conducted with the ARCO-2000 magnetic-type mass spectrometric calorimeter (ARCO System, Kashiwa, Japan) connected to the treadmill chamber (MB-2000, ARCO System). The RER was calculated as the VCO2/VO2 ratio and the substrate utilization rates were calculated using Frayn’s formula[51]: rate of glucose oxidation = 4.585VCO2 − 3.226VO2; rate of fat oxidation = 1.695VO2 − 1.701VCO2. The exercise endurance capacity under treadmill running was determined by measuring the time from the start to the time until the mice ceased to run because of exhaustion, which was defined as remaining on the shocker plate for more than 10 sec. Immediately after the exercise, the blood glucose and lactate levels were measured using Glutest Every and Lactate Pro2 (ARKRAY, Kyoto, Japan), respectively, in blood samples collected from the tail vein.

WT and eNOSKO mice = test: ITT in wild-type and eNOS-knockout mice; type: in vivo, mouse; conditions: for Blood glucose: Insulin tolerance test, individual animals
Experimental: Fig. 7 DS20060511 treatment decreases blood glucose levels in both WT and eNOSKO mice during oral GTT and ITT. a, b Blood glucose levels during oral GTT in wild-type (WT, n = 5) and eNOS-knockout (KO, n = 5–6) mice. Mice received vehicle or DS20060511 (10 mg kg^−1) orally 15 min before the glucose administration (3.0 g kg^−1). c, d Blood glucose levels during ITT in WT (n = 4) and KO (n = 5) mice. […] Values shown are means ± SEM. *P < 0.05, **P < 0.01, ***P < 0.001 vs. vehicle by the t-test.
C57BL/6 and db/db mice were purchased from CLEA Japan, Tokyo, Japan. GLUT4- knockout mice were generated at RIKEN BioResource Center, Tsukuba, Japan, according to a previously described method. eNOS-knockout mice were kindly provided by Dr. Masato Tsutsui[41],[42]. The mice were group-housed under controlled illumination (12:12 h light-dark cycle) and temperature (23 ± 2 °C) conditions and given free access to normal chow and water, unless otherwise specified. The HFD-fed obese mice were prepared by feeding C57BL/6 mice a HFD for at least 8 weeks from 6 weeks of age. […] Male mice were used for all the experiments in this study. The animal care and experimental procedures used in the study were approved by The University of Tokyo Animal Care Committee (Approval number: 27-3), and the study was carried out in accordance with the Animal Experimentation Guidelines of Daiichi Sankyo Co., Ltd (Approved number: 20000411).
Mice received the indicated oral dose of DS20060511 or vehicle at the same time as the intraperitoneal injection of insulin (Humulin) at the indicated dose. Blood glucose levels were measured using Glutest Every in blood samples collected from the tail vein at the indicated timepoints.

COc1ccc2c(C)c(C(=O)O)ccc2c1C1C2=C(CC(C)(C)CC2=O)OC2=C1C(=O)CC(C)(C)C2 [DS20060511]
CO2 Production (VCO2) (C57BL/6 mice; 5 min): 91.5 mL/min/kg and 72.5 mL/min/kg and 78.6 mL/min/kg and 85.8 mL/min/kg and 66.5 mL/min/kg and 73.8 mL/min/kg and 71.7 mL/min/kg
O2 Consumption (VO2) (C57BL/6 mice; 5 min): 103.7 mL/min/kg and 103.8 mL/min/kg and 83.5 mL/min/kg and 95.6 mL/min/kg and 90.5 mL/min/kg and 116.5 mL/min/kg and 90.3 mL/min/kg
Respiratory quotient (C57BL/6 mice; 5 min): 0.78 and 0.80 (2×) and 0.76 and 0.83 and 0.77 and 0.79
CO2 Production (VCO2) (C57BL/6 mice; 6 min): 87.9 mL/min/kg and 70.6 mL/min/kg and 76.9 mL/min/kg and 85.9 mL/min/kg and 73.0 mL/min/kg and 71.8 mL/min/kg and 71.2 mL/min/kg
O2 Consumption (VO2) (C57BL/6 mice; 6 min): 100.7 mL/min/kg and 102.8 mL/min/kg and 90.9 mL/min/kg and 93.7 mL/min/kg and 92.0 mL/min/kg and 112.2 mL/min/kg and 87.4 mL/min/kg
Respiratory quotient (C57BL/6 mice; 6 min): 0.78 and 0.81 and 0.76 and 0.84 and 0.80 and 0.77 (2×)
CO2 Production (VCO2) (C57BL/6 mice; 7 min): 93.5 mL/min/kg and 69.9 mL/min/kg and 76.8 mL/min/kg and 86.5 mL/min/kg and 72.9 mL/min/kg and 71.9 mL/min/kg and 70.2 mL/min/kg
O2 Consumption (VO2) (C57BL/6 mice; 7 min): 101.1 mL/min/kg and 105.0 mL/min/kg and 90.7 mL/min/kg and 93.7 mL/min/kg and 90.0 mL/min/kg and 120.2 mL/min/kg and 86.5 mL/min/kg
Respiratory quotient (C57BL/6 mice; 7 min): 0.78 (2×) and 0.81 and 0.76 and 0.82 and 0.80 and 0.77
CO2 Production (VCO2) (C57BL/6 mice; 8 min): 88.9 mL/min/kg and 75.0 mL/min/kg and 78.4 mL/min/kg and 85.8 mL/min/kg and 72.7 mL/min/kg and 72.1 mL/min/kg and 69.7 mL/min/kg
O2 Consumption (VO2) (C57BL/6 mice; 8 min): 103.5 mL/min/kg and 107.7 mL/min/kg and 91.4 mL/min/kg and 93.1 mL/min/kg and 101.3 mL/min/kg and 113.1 mL/min/kg and 92.7 mL/min/kg
Respiratory quotient (C57BL/6 mice; 8 min): 0.79 and 0.81 and 0.76 and 0.80 (2×) and 0.77 and 0.69
CO2 Production (VCO2) (C57BL/6 mice; 9 min): 95.5 mL/min/kg and 73.8 mL/min/kg and 77.9 mL/min/kg and 84.5 mL/min/kg and 74.4 mL/min/kg and 71.2 mL/min/kg and 78.8 mL/min/kg
O2 Consumption (VO2) (C57BL/6 mice; 9 min): 100.3 mL/min/kg and 103.6 mL/min/kg and 93.8 mL/min/kg and 94.2 mL/min/kg and 95.0 mL/min/kg and 118.5 mL/min/kg and 89.8 mL/min/kg
Respiratory quotient (C57BL/6 mice; 9 min): 0.81 and 0.82 (2×) and 0.78 and 0.79 and 0.76 and 0.83
CO2 Production (VCO2) (C57BL/6 mice; 10 min): 92.6 ml/min/kg and 70.7 ml/min/kg and 80.1 ml/min/kg and 84.2 ml/min/kg (2×) and 72.0 ml/min/kg and 74.9 ml/min/kg
O2 Consumption (VO2) (C57BL/6 mice; 10 min): 104.6 mL/min/kg and 102.1 mL/min/kg and 90.2 mL/min/kg and 95.3 mL/min/kg and 98.2 mL/min/kg and 113.5 mL/min/kg and 87.0 mL/min/kg
Respiratory quotient (C57BL/6 mice; 10 min): 0.82 (2×) and 0.81 and 0.77 and 0.80 and 0.79 and 0.86
CO2 Production (VCO2) (C57BL/6 mice; 11 min): 96.0 ml/min/kg and 73.8 ml/min/kg and 80.9 ml/min/kg and 84.3 ml/min/kg and 71.1 ml/min/kg (2×) and 86.5 ml/min/kg
O2 Consumption (VO2) (C57BL/6 mice; 11 min): 106.8 mL/min/kg and 102.9 mL/min/kg and 84.9 mL/min/kg and 92.0 mL/min/kg and 101.1 mL/min/kg and 115.1 mL/min/kg and 89.8 mL/min/kg
Respiratory quotient (C57BL/6 mice; 11 min): 0.83 and 0.82 (2×) and 0.76 and 0.84 and 0.77 and 0.85
CO2 Production (VCO2) (C57BL/6 mice; 12 min): 97.3 mL/min/kg and 74.3 mL/min/kg and 80.0 mL/min/kg and 93.2 mL/min/kg and 68.6 mL/min/kg and 70.0 mL/min/kg and 89.3 mL/min/kg
O2 Consumption (VO2) (C57BL/6 mice; 12 min): 103.8 mL/min/kg and 112.5 mL/min/kg and 85.8 mL/min/kg and 91.1 mL/min/kg and 105.1 mL/min/kg and 120.4 mL/min/kg and 90.9 mL/min/kg
Respiratory quotient (C57BL/6 mice; 12 min): 0.81 and 0.82 and 0.77 (2×) and 0.83 and 0.80 and 0.85
CO2 Production (VCO2) (C57BL/6 mice; 13 min): 101.9 mL/min/kg and 82.3 mL/min/kg and 78.0 mL/min/kg and 86.9 mL/min/kg and 68.9 mL/min/kg and 69.6 mL/min/kg and 93.3 mL/min/kg
O2 Consumption (VO2) (C57BL/6 mice; 13 min): 102.8 mL/min/kg and 102.5 mL/min/kg and 86.7 mL/min/kg and 90.5 mL/min/kg and 109.1 mL/min/kg and 127.7 mL/min/kg and 94.9 mL/min/kg
Respiratory quotient (C57BL/6 mice; 13 min): 0.80 and 0.87 and 0.76 and 0.85 and 0.79 and 0.77 and 0.86
CO2 Production (VCO2) (C57BL/6 mice; 14 min): 100.6 mL/min/kg and 80.5 mL/min/kg and 79.5 mL/min/kg and 84.1 mL/min/kg and 69.5 mL/min/kg and 69.8 mL/min/kg and 95.1 mL/min/kg
O2 Consumption (VO2) (C57BL/6 mice; 14 min): 102.1 mL/min/kg and 101.4 mL/min/kg and 88.4 mL/min/kg and 91.3 mL/min/kg and 109.8 mL/min/kg and 125.1 mL/min/kg and 95.0 mL/min/kg
Respiratory quotient (C57BL/6 mice; 14 min): 0.80 and 0.85 and 0.78 and 0.83 and 0.79 and 0.76 and 0.87
CO2 Production (VCO2) (C57BL/6 mice; 15 min): 92.4 mL/min/kg and 82.1 mL/min/kg and 81.9 mL/min/kg and 83.7 mL/min/kg and 69.2 mL/min/kg and 69.5 mL/min/kg and 105.4 mL/min/kg
O2 Consumption (VO2) (C57BL/6 mice; 15 min): 105.0 mL/min/kg and 100.1 mL/min/kg and 87.5 mL/min/kg and 93.8 mL/min/kg and 120.2 mL/min/kg and 115.1 mL/min/kg and 96.2 mL/min/kg
Respiratory quotient (C57BL/6 mice; 15 min): 0.80 and 0.85 and 0.78 and 0.84 and 0.79 and 0.74 and 0.88
CO2 Production (VCO2) (C57BL/6 mice; 16 min): 98.8 mL/min/kg and 82.5 mL/min/kg
O2 Consumption (VO2) (C57BL/6 mice; 16 min): 103.6 mL/min/kg and 108.6 mL/min/kg
Respiratory quotient (C57BL/6 mice; 16 min): 0.79 and 0.85
Blood glucose (C57BL/6 mice; exercise tolerance test, individual mice): 124 mg/dL and 146 mg/dL and 95 mg/dL and 96 mg/dL and 149 mg/dL and 133 mg/dL and 119 mg/dL
Blood glucose (WT and eNOSKO mice; Wildtype, 10 mg/kg, 0 min): 176 mg/dL and 163 mg/dL and 183 mg/dL and 182 mg/dL
Blood glucose (WT and eNOSKO mice; Wildtype, 10 mg/kg, 20 min): 96 mg/dL and 77 mg/dL and 89 mg/dL and 88 mg/dL
Blood glucose (WT and eNOSKO mice; Wildtype, 10 mg/kg, 40 min): 60 mg/dL and 67 mg/dL and 74 mg/dL
Blood glucose (WT and eNOSKO mice; Wildtype, 10 mg/kg, 60 min): 58 mg/dL and 71 mg/dL and 70 mg/dL and 52 mg/dL
Blood glucose (WT and eNOSKO mice; Wildtype, 10 mg/kg, 80 min): 57 mg/dL and 67 mg/dL and 68 mg/dL and 53 mg/dL
Blood glucose (WT and eNOSKO mice; Wildtype, 10 mg/kg, 100 min): 63 mg/dL and 84 mg/dL and 67 mg/dL and 58 mg/dL
Blood glucose (WT and eNOSKO mice; Wildtype, 10 mg/kg, 120 min): 57 mg/dL and 74 mg/dL and 70 mg/dL
Blood glucose (WT and eNOSKO mice; eNOSKO, 30 mg/kg, 0 min): 191 mg/dL and 175 mg/dL and 168 mg/dL and 169 mg/dL
Blood glucose (WT and eNOSKO mice; eNOSKO, 30 mg/kg, 20 min): 95 mg/dL and 89 mg/dL and 100 mg/dL and 120 mg/dL and 97 mg/dL
Blood glucose (WT and eNOSKO mice; eNOSKO, 30 mg/kg, 40 min): 69 mg/dL and 75 mg/dL and 81 mg/dL and 76 mg/dL
Blood glucose (WT and eNOSKO mice; eNOSKO, 30 mg/kg, 60 min): 61 mg/dL and 64 mg/dL and 40 mg/dL and 41 mg/dL and 51 mg/dL
Blood glucose (WT and eNOSKO mice; eNOSKO, 30 mg/kg, 80 min): 66 mg/dL and 55 mg/dL and 39 mg/dL and 48 mg/dL
Blood glucose (WT and eNOSKO mice; eNOSKO, 30 mg/kg, 100 min): 72 mg/dL and 53 mg/dL and 35 mg/dL and 34 mg/dL and 39 mg/dL
Blood glucose (WT and eNOSKO mice; eNOSKO, 30 mg/kg, 120 min): 76 mg/dL and 49 mg/dL and 55 mg/dL and 37 mg/dL and 39 mg/dL
blood glucose levels during ITT (in words) (WT and eNOSKO mice; WT and eNOSKO mice, 30 mg kg−1 po with 0.5 U kg−1 insulin ip): reduced even further
